Measurements: patent US10406098B2, “Injection solution comprising a non-nucleoside reverse-transcriptase inhibitor and poly(lactide-co-glycolide)” (Evonik Roehm GmbH, priority 2015, dated 2019)

Experiment: Release test in phosphate buffer saline pH 7.4 (standard body-fluid single compartment release experiment)
Format: physicochemical
Settings: PBS pH 7.4, samples at 0, 1, 2, 4, 24 and 96 hours, HPLC; comparative statement
Experimental: Example Performance in a standard body-fluid single compartment release experiment Release Test: 100 ml of phosphate buffer saline pH 7.4 (PBS, British Pharmacopoeia) are given to a 200 ml volumetric flask. […] PBS-buffer is filled up to 200 ml. API release studies were performed in triplicate. Samples (2 ml) for HPLC analysis were taken at 0, 1, 2, 4, 24 and 96 hours and centrifuged for 5 minutes at 13400 rpm the supernatant was injected according to the HPLC method in Table 5. At 2, 4 and 24 hours 100 ml of the dissolution medium were pulled and 100 ml of fresh buffer was added (PBS 7.4). [table]

release / release rate of the active ingredient: much higher
Structure (SMILES): O=C1Nc2ccc(Cl)cc2[C@@](C#CC2CC2)(C(F)(F)F)O1 [Efavirenz]
